The results in this text go back to ChEMBL document CHEMBL3352546, “KDM4B as a target for prostate cancer: structural analysis and selective inhibition by a novel inhibitor” (J Med Chem, 2014).

The source made the active and inactive calls. The rule behind the calls is not given here.

Data set [1] can be described thus: Cytotoxicity against human PNT2 cells at 5 to 20 uM measured over 6 days by MTT assay. It is filed as cell-based. As to conditions: pnt2, 144 h.
For data set [2], the target named is T1, Lysine-specific demethylase 4D (Homo sapiens) (UniProt Q6B0I6).
T1 sequence (whole entry): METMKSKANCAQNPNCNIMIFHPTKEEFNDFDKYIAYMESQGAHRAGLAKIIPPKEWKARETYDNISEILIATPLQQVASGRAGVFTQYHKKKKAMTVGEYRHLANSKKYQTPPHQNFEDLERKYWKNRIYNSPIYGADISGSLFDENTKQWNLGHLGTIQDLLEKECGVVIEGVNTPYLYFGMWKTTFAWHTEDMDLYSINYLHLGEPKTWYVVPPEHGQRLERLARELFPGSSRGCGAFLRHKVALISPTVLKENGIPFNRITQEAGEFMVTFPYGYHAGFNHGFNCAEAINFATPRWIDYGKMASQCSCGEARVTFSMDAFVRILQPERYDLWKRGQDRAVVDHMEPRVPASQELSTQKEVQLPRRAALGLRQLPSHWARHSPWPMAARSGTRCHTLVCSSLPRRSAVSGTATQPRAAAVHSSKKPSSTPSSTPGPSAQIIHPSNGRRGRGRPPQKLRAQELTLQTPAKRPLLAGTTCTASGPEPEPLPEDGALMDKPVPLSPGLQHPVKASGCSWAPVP
The experiment in a line: Inhibition of purified recombinant KDM4D (1 to 350 aa) (unknown origin) expressed in Escherichia coli using H3K9me3 peptide as substrate after 30 mins by FDH-coupled assay.

Data set [3] has as its target T2, Lysine-specific demethylase 4E (Homo sapiens) (UniProt B2RXH2).
T2 sequence (whole entry): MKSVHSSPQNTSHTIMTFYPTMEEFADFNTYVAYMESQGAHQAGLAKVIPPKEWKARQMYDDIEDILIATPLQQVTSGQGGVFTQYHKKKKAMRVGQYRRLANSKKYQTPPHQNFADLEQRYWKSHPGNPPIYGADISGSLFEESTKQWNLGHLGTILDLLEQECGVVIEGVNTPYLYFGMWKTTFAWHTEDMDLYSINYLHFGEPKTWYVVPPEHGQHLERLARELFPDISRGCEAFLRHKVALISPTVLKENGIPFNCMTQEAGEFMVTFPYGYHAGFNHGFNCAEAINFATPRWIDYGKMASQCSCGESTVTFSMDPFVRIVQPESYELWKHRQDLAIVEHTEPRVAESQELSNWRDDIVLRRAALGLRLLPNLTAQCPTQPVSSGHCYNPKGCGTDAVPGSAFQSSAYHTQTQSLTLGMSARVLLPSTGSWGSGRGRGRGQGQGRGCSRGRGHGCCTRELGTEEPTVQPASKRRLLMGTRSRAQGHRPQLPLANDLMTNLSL
The experiment in a line: Inhibition of purified recombinant KDM4E (1 to 347 aa) (unknown origin) expressed in Escherichia coli using H3K9me3 peptide as substrate after 30 mins by FDH-coupled assay.

Another data set has as its system LNCaP. The experiment in a line: Cytotoxicity against human LNCAP cells after 3 days by MTT assay. It is filed as functional, cell-based. Conditions: 72 h. (Formazan colour is commonly taken as a measure of viable cells.)

Consider `O=[N+]([O-])c1cc([N+](=O)[O-])c(/C=C/c2ccc(Cl)c(Cl)c2)cc1/C=C/c1ccc(Cl)c(Cl)c1`, for which the Activity entry in data set [1] is reported as “Non-toxic”. Also, the inhibition entry in data set [2] and in data set [3] was “inactive” in each case.
One may read the CC50 as the concentration at which the toxic effect on the cells reaches its halfway point. A higher CC50 goes with lower toxicity to the cells. Turning to `O=C(O)c1ccnc(C(=O)O)c1`, the inhibition result in data set [2] and in data set [3] was “Active” in each case. The compound further gave a CC50 in the data set with LNCaP of 589 µM.
